Like-named read-outs stand apart in the source and are kept apart here.
Key:
[1] = molecular target: T1, cyclic nucleotide phosphodiesterase (Canis lupus familiaris, UniProt A0A8I3NYE0); experiment: Phosphodiesterase inhibitory activity, racemate testing; type: biochemical; conditions: read-out: IC50 (Micromolar concentration for 50% inhibition of cyclic nucleotide activity); cyclic AMP as substrate, Tris-Cl buffer pH 7.4
T1 sequence (A0A8I3NYE0 1-1135): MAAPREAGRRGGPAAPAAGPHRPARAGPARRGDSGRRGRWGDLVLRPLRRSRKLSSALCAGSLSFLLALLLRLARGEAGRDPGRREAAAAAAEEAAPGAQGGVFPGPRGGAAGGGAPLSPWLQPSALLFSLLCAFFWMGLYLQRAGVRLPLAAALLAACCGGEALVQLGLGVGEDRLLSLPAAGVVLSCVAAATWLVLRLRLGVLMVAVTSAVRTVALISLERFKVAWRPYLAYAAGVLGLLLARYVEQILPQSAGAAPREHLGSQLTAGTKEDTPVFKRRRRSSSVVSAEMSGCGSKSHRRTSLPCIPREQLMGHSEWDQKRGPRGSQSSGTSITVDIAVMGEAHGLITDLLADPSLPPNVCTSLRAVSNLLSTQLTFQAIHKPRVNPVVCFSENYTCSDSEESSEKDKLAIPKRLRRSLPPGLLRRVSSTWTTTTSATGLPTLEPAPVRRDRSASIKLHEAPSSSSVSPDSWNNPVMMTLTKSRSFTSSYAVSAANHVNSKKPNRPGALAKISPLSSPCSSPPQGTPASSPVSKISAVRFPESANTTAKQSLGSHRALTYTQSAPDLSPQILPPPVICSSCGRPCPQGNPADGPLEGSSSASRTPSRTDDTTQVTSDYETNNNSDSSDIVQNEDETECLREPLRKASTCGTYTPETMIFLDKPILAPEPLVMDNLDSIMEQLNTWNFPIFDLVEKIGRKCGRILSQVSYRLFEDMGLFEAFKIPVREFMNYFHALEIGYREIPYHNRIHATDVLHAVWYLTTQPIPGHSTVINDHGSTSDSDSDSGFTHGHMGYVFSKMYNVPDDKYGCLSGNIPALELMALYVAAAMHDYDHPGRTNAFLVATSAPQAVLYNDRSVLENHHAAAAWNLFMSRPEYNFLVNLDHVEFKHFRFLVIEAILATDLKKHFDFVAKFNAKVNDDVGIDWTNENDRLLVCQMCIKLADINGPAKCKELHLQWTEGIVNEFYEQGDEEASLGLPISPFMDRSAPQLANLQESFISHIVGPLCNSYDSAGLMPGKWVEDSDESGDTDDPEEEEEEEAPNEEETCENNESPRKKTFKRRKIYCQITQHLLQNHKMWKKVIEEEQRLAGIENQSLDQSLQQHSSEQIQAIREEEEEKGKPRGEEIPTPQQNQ

adult mongrel dogs [2] = experiment: Cardiotonic activity, racemate testing in anesthetized dogs; type: in vivo
Experimental: The cardiotonic activity of the compounds was determined in accordance with the method of Alousi, A. A., et al., J. Cir. Res., 45, 666 (l979). Basically, adult mongrel dogs were anesthetized with sodium pentobarbital and artifically respired. Arterial pressure was recorded via a femoral artery and the pressure pulse used to trigger a cardiotachometer for heart rate. Left ventricular pressure was measured with a Millar catheter and dP/dt was derived. Cardiac output was determined by measuring ascending aortic blood flow with an electromagnetic flow probe and myocardial contractile force was measured with a Walton Brodie strain gauge sutured to the right ventricle. Lead II EKG was also recorded. A standard dose of dopamine was administered to assess myocardial responsiveness. Test compounds were administered by i.v. infusion or bolus administration and the effects on cardiovascular parameters were determined. Dose-related effects of the test compound on BP, HR, dP/dt max., C.F. and C.O. were compared to pretreatment control values and expressed as a percentage change.

[3] = system: human platelet aggregation; experiment: Platelet aggregation in vitro in platelet rich plasma; type: cell-based; conditions: Homo sapiens, Platelet, human PRP
Experimental: The racemate and enantiomeric Bemoradan were tested for their effects in vitro on human platelet aggregation. Platelet rich plasma (PRP) was prepared from human donors who were free of aspirin for the preceding week. Venous blood was collected in sodium citrate vacutainer tubes and PRP was obtained by centrifuging the blood at l000 rpm for 5 min. Compounds were dissolved in methanol and added to 480 µl of PRP in a Chrono-log dual channel aggregometer l min prior to aggregant. Serotonin at 5 µM or ADP at 2 µM were the aggregating agents.

[4] = molecular target: T2, canine cardiac cyclic nucleotide phosphodiesterase (PDE) fraction III (Canis lupus familiaris, UniProt A0A8I3NYE0); experiment: Cyclic AMP phosphodiesterase assay with fraction III isoenzyme, comparative testing; type: biochemical
T2 construct: The fraction III isoenzyme was pooled and dialyzed; from tissue; host or cells: canine heart, soluble supernatant, DEAE cellulose fraction III (800 mM sodium acetate eluate)
T2 sequence (A0A8I3NYE0 1-1135): T1 sequence (A0A8I3NYE0 1-1135)

adult mongrel dogs [5] = experiment: Comparative racemate and enantiomer hemodynamic testing in pentobarbital anesthetized open-chest dogs; type: in vivo; conditions: dogs
Experimental: Adult mongrel dogs weighing approximately l0-l4 kg were anesthetized with sodium pentobarbital (35 mg/kg, i.p.) and artificially respired. A femoral artery was cannulated to measure mean arterial pressure (MAP) and a femoral vein was cannulated for administering compounds. A Millar microtip pressure transducer was placed in the left ventricle via the left carotid artery to measure left ventricular end diastolic pressure (EDP). pressure pulses triggered a cardiotachometer for determination of heart rate (HR) while the left ventricular pressure waveform was differentiated using a Gould differentiating amplifier to yield dP/dtmax, an index of contractility. A right thoractomy was performed at the fourth intercostal space and the pericardial sac was opened. An externally calibrated Walton-Brodie strain gauge arch was sutured to the right ventricular free wall and stretched to produce a baseline force of approximately l00g. Subsequent changes in right ventricular contractile force (CF) were measured from this baseline. A Carolina electromagnetic flow probe was placed on the ascending aorta to estimate cardiac output (CO). A flexible fluid-filled catheter was inserted into the tip of the right atrium to measure right atrial pressure (RAP). Needle electrodes were placed in the appropriate limbs to record a lead II electrocardiogram (ECG). The following formulas were used to calculate derived parameters: Stroke volume (SV) = CO/HR x l000 Stroke work (SW) = ([…]) x SV Total peripheral resistance (TPR) = (MAP-EDP)/CO
Following surgery and stabilization of hemodynamic parameters, an i.v. infusion of dopamine (l0-l5 µg/kg/min for 3 min) was administered with a Harvard infusion pump to assess responsiveness to positive inotropic stimulation. Baseline hemodynamic values were obtained immediately prior to drug infusion. Responses were continuously monitored on a recorder (Gould 2800) and data collection was facilitated by the use of a Buxco cardiovascular analyzer and data logger.
In the comparative testing a stock solution of each enantiomer (l mg/ml) was prepared fresh daily and diluted before use. Compounds were dissolved in a small volume of dimethylformamide (DMF) and diluted with saline for a final concentration of l5% DMF. Further dilutions were made with a l5% DMF solution.
In the comparative testing each compound was administered in cumulative doses to separate dogs. Data were obtained at the end of each dose. (±) Bemoradan and (+) Bemordan were infused at cumulative doses of 5, l5, 35 and 75 µg/kg, administered with a Harvard infusion pump for 5 minutes each at rates of 0.56, l.l, 2.2, and […], respectively. (-) Bemoradan was given at doses of 5, l5 and 35 µg/kg following the same protocol. The high dose of the (-) isomer was not administered as a means of conserving compound.
Hemodynamic results were expressed as the percent change from pre-drug baseline values and compared using a Dunnett's test with a criterion for significance of p < 0.05. Contractile force ED₄₀ values (i.e., the dose which increased contractile force by 40%) were calculated from dose-response regression lines.

Compound: O=C1CCC(c2ccc3c(c2)NC(=O)CS3)=NN1 [Example 54, 6-(3,4-Dihydro-3-oxo-l,4[2H]-benzothiazin-6-yl)-2,3,4,5-tetrahydropyridazin-3-one]
- IC50 [1]: 22000 nM
- CF (Percent increase in cardiac force) (adult mongrel dogs [2]; I.V. dose 0.075 mpk): 11%

Compound: 6-(3,4-Dihydro-3-oxo-l,4[2H]-benzothiazin-7-yl)-2,3,4,5-tetrahydro-5-methylpyridazin-3-one [Example 56]
- CF (Percent increase in cardiac force) (adult mongrel dogs [2]; I.V. dose 0.027 mpk): 32%

Compound: COC(=O)CC(C)C(=O)c1ccc2c(c1)SCC(=O)N2C (stereo not drawn) [Example 53, Methyl 4-(3,4-dihydro-4-methyl-3-oxo-l,4[2H]-benzothiazin-7-yl)-3-methyl-4-oxobutyrate]
- IC50 [1]: 25000 nM
- CF (Percent increase in cardiac force) (adult mongrel dogs [2]; I.V. dose 0.075 mpk): 21%

Compound: CN1C(=O)CSc2ccc(C3=NNC(=O)CC3)cc21 [Example 55, 6-(3,4-Dihydro-4-methyl-3-oxo-l,4[2H]-benzothiazin-6-yl)-2,3,4,5-tetrahydropyridazin-3-one]
- IC50 [1]: < 100 nM
- CF (Percent increase in cardiac force) (adult mongrel dogs [2]; I.V. dose 0.035 mpk): 160%

Compound: CC1CC(=O)NN=C1c1ccc2c(c1)OCC(=O)N2 (racemic) [Example 46, 6-(3,4-Dihydro-3-oxo-l,4(2H)-benzoxazin-7-yl)-2,3,4,5-tetrahydro-5-methylpyridazin-3-one]
- IC50 ([3]; ADP at 2 µM, read-out: Antiaggregatory IC50 (µM) vs. ADP): 0.65 µM
- IC50 ([3]; Serotonin at 5 µM, read-out: Antiaggregatory IC50 (µM) vs. 5-HT): 0.4 µM
- IC50 ([3]; Table I summary, ADP at 2 µM as aggregant, read-out: Platelet aggregation (IC50) vs. ADP): 0.65 µM
- IC50 ([3]; Table I summary, serotonin at 5 µM as aggregant, read-out: Platelet aggregation (IC50) vs. 5-HT (serotonin)): 0.4 µM
- IC50 ([4]; Table I summary, canine cardiac PDE fraction III, read-out: PDE III inhibition (IC50)): 710 nM
- IC50 ([4]; canine heart fraction III, 0.1 µM cyclic AMP, read-out: PDE III IC50): 710 nM
- ED40 (adult mongrel dogs [5]; Canis lupus familiaris, iv, Table I summary, dose increasing contractile force by 40%, i.v., read-out: In vivo inotropic ED40, i.v.): 4.4 µg/kg
- CF ED40 (µg/kg) with 95% F.L. (adult mongrel dogs [5]; dose causing a 40% increase in contractility above baseline, from dose-response regression lines, i.v. infusion): 4.4 (3.9 - 4.9) µg/kg
